Results: patent US7053175B1, “Synthetic peptides useful in biological assays for detecting infections caused by group O HIV-1 viruses” (Bio-Rad Pasteur, priority 1997, dated 2006)
No end group written: not given here.

Test system: sera from patients infected with group O HIV-1 retroviruses
Experiment: Immunoenzymatic test: Test No. 1 (immunoreactivity of peptides coated on microplates)
Assay type: binding, human
Set-up: key to ABSORBANCE: >: signal greater than the reading capacity of the spectrophotometer
Conditions: for ABSORBANCE: cyclized peptide 2 μg/ml
Method: The sera used ESS, DUR, VAU and HAD are sera from French patients infected with group O HIV-1 retroviruses. The other serum samples from patients infected with group O HIV-1 retroviruses were obtained by the Yaoundé Pasteur Centre in Cameroon and were serotyped group O according to the serological algorithm described in AIDS (1977), 11, pp 445-453.
The HIV-negative sera (n=48) were obtained from healthy volunteers.
The synthetic peptides used were dissolved in water at a concentration of 1 mg/ml (stock solution). For the solid phase sensitization step (coating), 110 μl of a solution at 2 μg/ml of each peptide (obtained by diluting the stock solution with 0.1 M carbonate buffer solution) were added to each well of the microtitre plates Microtiter™ (NUNC). After incubating overnight at room temperature, the microplates were first washed with a Tris-NaCl buffer solution pH 7.4 containing 0.1% of Tween® 20 and 0.001% sodium merthiolate, and then saturated with a PBS solution containing 0.5% of Régilait™ (dried skimmed milk). After aspirating the saturating solution, the plates were heated for 10 min at 50° C.
The serum samples were diluted 1/5 with a skimmed milk solution (citrate buffer supplemented with 0.01% of phenol red, 0.25% of chloroform and 0.25% of Kathon®), deposited in the wells of the plates and incubated for 30 min at 40° C.
After washing with a Tris-NaCl buffer solution pH 7.4 containing 0.1% of Tween® 20 and 0.001% of sodium merthiolate, 100 μl of a solution of conjugate consisting of horseradish peroxidase-labelled anti-human IgG and IgM goat antibodies, containing as preservative 0.01% of sodium merthiolate, in solution in a citrate buffer solution supplemented with 30% glycerol and 25% normal foetal calf serum, were added to each plate well and then the plates were incubated for 30 min at 40° C.
After washing with a Tris-NaCl buffer solution pH 7.4 containing 0.1% of Tween® 20 and 0.001% of sodium merthiolate, the colour was developed by adding, to each well, 100 μl of O-phenylenediamine in solution in hydrogen peroxide. The microplates were then incubated for 30 min at room temperature and in the dark. The coloured reaction was then stopped by addition of 100 μl of 4N sulphuric acid. The absorbance (A) was determined at 490 and 620 nm.
The relative absorbance (A490-A620) read in each well is proportional to the immunoreactivity of each peptide. It indicates the ability of each peptide to react with the biological sample with which the test is carried out. The cut-off value was determined as being an absorbance equal to 0.15. It corresponds to the mean of the negative values (n=48) plus 12 standard deviations.
The reactivity of the peptides of the invention (peptide No. 3 (4B), peptide No. 2 (3B) and peptide No. 1 (2B), all in cyclized form), was compared with that of two synthetic peptides having, as sequence, a portion of the natural sequence of the envelope (env) of the VAU isolate (group O HIV-1 retrovirus) and comprising an immunodominant epitope of gp41.
For the study, these peptides were used in cyclized form.

LLSSWGCKGRLVCYTSVQWNET [PEPTIDE No. 3 (4B)]
0.555: ABSORBANCE (serum 5453)
2.402: ABSORBANCE (serum 3482)
0.710: ABSORBANCE (serum 6689*)
1.342: ABSORBANCE (serum VAU*)
1.421: ABSORBANCE (serum 1105*)
0.746: ABSORBANCE (serum 6512*)
>: ABSORBANCE (serum 134) | ABSORBANCE (serum 402) | ABSORBANCE (serum 625) | ABSORBANCE (serum 1062) | ABSORBANCE (serum 1581) | ABSORBANCE (serum 1702) | ABSORBANCE (serum 1754) | ABSORBANCE (serum 2294) | ABSORBANCE (serum 2312) | ABSORBANCE (serum 2313) | ABSORBANCE (serum 2352) | ABSORBANCE (serum 2551) | ABSORBANCE (serum 2700) | ABSORBANCE (serum 3016) | ABSORBANCE (serum 3136) | ABSORBANCE (serum 3235) | ABSORBANCE (serum 3236) | ABSORBANCE (serum 3302) | ABSORBANCE (serum 3529) | ABSORBANCE (serum 3600*) | ABSORBANCE (serum 3627*) | ABSORBANCE (serum 3637) | ABSORBANCE (serum 3771) | ABSORBANCE (serum 3884*) | ABSORBANCE (serum 3891) | ABSORBANCE (serum 3935) | ABSORBANCE (serum 3945) | ABSORBANCE (serum 4288*) | ABSORBANCE (serum 4364) | ABSORBANCE (serum 4434) | ABSORBANCE (serum 4477) | ABSORBANCE (serum 4489*) | ABSORBANCE (serum 5149*) | ABSORBANCE (serum 5164) | ABSORBANCE (serum 5210) | ABSORBANCE (serum 5270*) | ABSORBANCE (serum 5373) | ABSORBANCE (serum 5766*) | ABSORBANCE (serum 5931) | ABSORBANCE (serum 5969*) | ABSORBANCE (serum 6111) | ABSORBANCE (serum 6165) | ABSORBANCE (serum 6198*) | ABSORBANCE (serum 6487) | ABSORBANCE (serum 6627) | ABSORBANCE (serum 6697) | ABSORBANCE (serum 6782) | ABSORBANCE (serum 6891) | ABSORBANCE (serum 6976*) | ABSORBANCE (serum 6998) | ABSORBANCE (serum 7120) | ABSORBANCE (serum 7212) | ABSORBANCE (serum 7258*) | ABSORBANCE (serum 7297*) | ABSORBANCE (serum 7439) | ABSORBANCE (serum 7443) | ABSORBANCE (serum DUR*) | ABSORBANCE (serum HAD)
1.352: ABSORBANCE (serum 3653)
2.136: ABSORBANCE (serum 7007)
0.430: ABSORBANCE (serum 4021*)
1.718: ABSORBANCE (serum 6295*)
best performance: immunoreactivity compared with the other peptides (in words) (summary of Table IV)
>**: ABSORBANCE (serum ESS*)

RLLALETFIEENELLNLWGCKNRAICYTSVKWNKT (cysteine pairing not given here) [VAU 35 AA, reference compound]
2.891: ABSORBANCE (serum 6487)
2.585: ABSORBANCE (serum 625)
2.151: ABSORBANCE (serum 7007)
0.574: ABSORBANCE (serum 7443)
1.322: ABSORBANCE (serum 3653)
0.496: ABSORBANCE (serum 6891)
0.856: ABSORBANCE (serum 5373)
2.225: ABSORBANCE (serum 5931)
0.227: ABSORBANCE (serum 3935)
1.948: ABSORBANCE (serum 1754)
0.894: ABSORBANCE (serum 1581)
0.871: ABSORBANCE (serum HAD)
0.174: ABSORBANCE (serum 6512*)
2.214: ABSORBANCE (serum 6782)
>: ABSORBANCE (serum 134) | ABSORBANCE (serum 402) | ABSORBANCE (serum 1062) | ABSORBANCE (serum 1702) | ABSORBANCE (serum 2294) | ABSORBANCE (serum 2312) | ABSORBANCE (serum 2313) | ABSORBANCE (serum 2352) | ABSORBANCE (serum 2551) | ABSORBANCE (serum 2700) | ABSORBANCE (serum 3016) | ABSORBANCE (serum 3136) | ABSORBANCE (serum 3235) | ABSORBANCE (serum 3236) | ABSORBANCE (serum 3302) | ABSORBANCE (serum 3482) | ABSORBANCE (serum 3529) | ABSORBANCE (serum 3600*) | ABSORBANCE (serum 3627*) | ABSORBANCE (serum 3771) | ABSORBANCE (serum 3884*) | ABSORBANCE (serum 3891) | ABSORBANCE (serum 3945) | ABSORBANCE (serum 4364) | ABSORBANCE (serum 4434) | ABSORBANCE (serum 4477) | ABSORBANCE (serum 5149*) | ABSORBANCE (serum 5164) | ABSORBANCE (serum 5210) | ABSORBANCE (serum 5270*) | ABSORBANCE (serum 5766*) | ABSORBANCE (serum 5969*) | ABSORBANCE (serum 6111) | ABSORBANCE (serum 6165) | ABSORBANCE (serum 6198*) | ABSORBANCE (serum 6295*) | ABSORBANCE (serum 6627) | ABSORBANCE (serum 6689*) | ABSORBANCE (serum 6697) | ABSORBANCE (serum 6976*) | ABSORBANCE (serum 6998) | ABSORBANCE (serum 7120) | ABSORBANCE (serum 7212) | ABSORBANCE (serum 7258*) | ABSORBANCE (serum 7297*) | ABSORBANCE (serum 7439) | ABSORBANCE (serum ESS*) | ABSORBANCE (serum VAU*)
0.872: ABSORBANCE (serum DUR*)
1.957: ABSORBANCE (serum 4021*)
1.482: ABSORBANCE (serum 5453)
1.718: ABSORBANCE (serum 4489*)
0.129: ABSORBANCE (serum 1105*)
1.647: ABSORBANCE (serum 3637)
